We go through 2 compounds from ChEMBL document CHEMBL4507268 (2021).

Assay [1] concerns SNU-449. In words: Proliferation assay: SNU-449 (hepatocellular carcinoma). The assay is classed as functional, cell-based. Particulars: Homo sapiens; call rule not given here.
Assay [2] addresses Bone morphogenetic protein receptor type-1B (Homo sapiens) (UniProt O00238). Particulars: Compound concentration 1000.0 nM.
The target in assay [3] is Eukaryotic translation initiation factor 2-alpha kinase 1 (Homo sapiens) (UniProt Q9BQI3). To be noted: Compound concentration 1000.0 nM.
Sequence of Eukaryotic translation initiation factor 2-alpha kinase 1 (Homo sapiens) (Q9BQI3 whole entry): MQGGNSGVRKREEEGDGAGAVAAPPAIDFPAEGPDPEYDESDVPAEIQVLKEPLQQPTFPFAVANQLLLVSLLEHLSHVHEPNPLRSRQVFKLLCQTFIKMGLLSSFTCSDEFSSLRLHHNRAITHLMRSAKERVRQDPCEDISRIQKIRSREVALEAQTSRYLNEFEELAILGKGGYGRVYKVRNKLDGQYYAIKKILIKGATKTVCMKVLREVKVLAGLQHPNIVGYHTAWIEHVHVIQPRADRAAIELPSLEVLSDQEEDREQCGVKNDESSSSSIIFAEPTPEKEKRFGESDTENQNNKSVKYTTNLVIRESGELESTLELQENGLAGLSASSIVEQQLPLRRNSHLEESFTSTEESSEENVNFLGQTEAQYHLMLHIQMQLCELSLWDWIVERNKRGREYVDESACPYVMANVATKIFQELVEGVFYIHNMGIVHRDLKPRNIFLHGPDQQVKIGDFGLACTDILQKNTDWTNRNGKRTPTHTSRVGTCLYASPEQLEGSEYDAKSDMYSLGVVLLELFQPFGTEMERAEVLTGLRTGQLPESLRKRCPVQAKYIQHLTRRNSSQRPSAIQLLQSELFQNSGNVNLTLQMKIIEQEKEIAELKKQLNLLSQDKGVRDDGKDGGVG
Assay [4] has as its target T1, Tyrosine-protein kinase Mer (Homo sapiens) (UniProt Q12866).
T1 sequence (whole entry): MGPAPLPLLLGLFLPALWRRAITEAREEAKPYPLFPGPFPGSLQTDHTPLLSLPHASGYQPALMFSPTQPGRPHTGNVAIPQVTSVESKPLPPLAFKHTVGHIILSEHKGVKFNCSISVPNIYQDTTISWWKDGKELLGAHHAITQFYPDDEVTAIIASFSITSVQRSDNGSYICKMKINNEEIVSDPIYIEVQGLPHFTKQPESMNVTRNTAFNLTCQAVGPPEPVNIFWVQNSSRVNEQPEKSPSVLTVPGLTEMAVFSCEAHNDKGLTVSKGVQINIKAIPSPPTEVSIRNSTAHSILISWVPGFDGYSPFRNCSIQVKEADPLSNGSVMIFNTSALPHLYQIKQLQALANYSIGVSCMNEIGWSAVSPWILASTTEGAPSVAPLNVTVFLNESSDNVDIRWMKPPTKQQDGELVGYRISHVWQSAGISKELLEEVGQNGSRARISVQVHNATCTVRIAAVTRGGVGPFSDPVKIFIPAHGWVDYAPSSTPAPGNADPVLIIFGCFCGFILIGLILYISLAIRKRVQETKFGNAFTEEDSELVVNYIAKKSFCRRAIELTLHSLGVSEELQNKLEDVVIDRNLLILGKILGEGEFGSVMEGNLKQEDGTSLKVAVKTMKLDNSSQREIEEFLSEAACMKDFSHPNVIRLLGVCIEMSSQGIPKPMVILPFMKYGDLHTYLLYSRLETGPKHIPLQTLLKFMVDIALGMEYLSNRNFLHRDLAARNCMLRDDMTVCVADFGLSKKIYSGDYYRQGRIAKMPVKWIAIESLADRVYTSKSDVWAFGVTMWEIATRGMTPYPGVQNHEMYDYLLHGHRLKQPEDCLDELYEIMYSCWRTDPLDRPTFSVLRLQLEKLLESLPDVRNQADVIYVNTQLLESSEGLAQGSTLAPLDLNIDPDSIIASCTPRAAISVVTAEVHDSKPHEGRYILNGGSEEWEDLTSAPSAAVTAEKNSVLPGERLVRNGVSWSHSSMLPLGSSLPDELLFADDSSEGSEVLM
To be noted: Compound concentration 1000.0 nM.

For assay [5], the target named is T2, Serine/threonine-protein kinase NLK (Homo sapiens) (UniProt Q9UBE8).
T2 sequence (whole entry): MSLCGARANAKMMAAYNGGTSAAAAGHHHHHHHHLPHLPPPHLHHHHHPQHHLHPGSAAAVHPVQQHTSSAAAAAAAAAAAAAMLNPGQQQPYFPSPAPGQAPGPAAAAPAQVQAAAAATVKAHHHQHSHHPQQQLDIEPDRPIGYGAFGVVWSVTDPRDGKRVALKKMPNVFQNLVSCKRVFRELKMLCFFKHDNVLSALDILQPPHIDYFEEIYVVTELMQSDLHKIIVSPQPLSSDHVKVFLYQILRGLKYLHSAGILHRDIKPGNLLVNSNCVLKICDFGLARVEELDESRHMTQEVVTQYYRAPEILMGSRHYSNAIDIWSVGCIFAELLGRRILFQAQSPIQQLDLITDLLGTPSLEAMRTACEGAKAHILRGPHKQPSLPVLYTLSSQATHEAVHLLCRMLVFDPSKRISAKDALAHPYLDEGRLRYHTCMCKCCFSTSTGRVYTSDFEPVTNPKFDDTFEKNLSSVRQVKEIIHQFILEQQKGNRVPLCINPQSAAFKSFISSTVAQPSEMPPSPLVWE
Particulars: Compound concentration 1000.0 nM.

Assay [6] deals with Phosphatidylinositol 5-phosphate 4-kinase type-2 gamma (Homo sapiens) (UniProt Q8TBX8). Particulars: Compound concentration 1000.0 nM.
Sequence of Phosphatidylinositol 5-phosphate 4-kinase type-2 gamma (Homo sapiens) (Q8TBX8 whole entry): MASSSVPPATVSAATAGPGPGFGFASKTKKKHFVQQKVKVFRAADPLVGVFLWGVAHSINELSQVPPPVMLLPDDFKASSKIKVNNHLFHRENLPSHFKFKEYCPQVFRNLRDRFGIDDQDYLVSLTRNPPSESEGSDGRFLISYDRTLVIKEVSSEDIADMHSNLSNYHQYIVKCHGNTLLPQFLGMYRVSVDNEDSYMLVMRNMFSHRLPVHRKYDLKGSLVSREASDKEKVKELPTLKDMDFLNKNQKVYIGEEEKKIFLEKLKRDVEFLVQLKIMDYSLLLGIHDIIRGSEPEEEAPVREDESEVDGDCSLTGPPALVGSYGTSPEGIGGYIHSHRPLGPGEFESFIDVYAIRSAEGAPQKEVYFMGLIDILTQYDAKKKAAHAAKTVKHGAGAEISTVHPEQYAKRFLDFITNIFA
Assay [7] deals with T3, cGMP-dependent protein kinase 1 (Homo sapiens) (UniProt Q13976).
T3 sequence (whole entry): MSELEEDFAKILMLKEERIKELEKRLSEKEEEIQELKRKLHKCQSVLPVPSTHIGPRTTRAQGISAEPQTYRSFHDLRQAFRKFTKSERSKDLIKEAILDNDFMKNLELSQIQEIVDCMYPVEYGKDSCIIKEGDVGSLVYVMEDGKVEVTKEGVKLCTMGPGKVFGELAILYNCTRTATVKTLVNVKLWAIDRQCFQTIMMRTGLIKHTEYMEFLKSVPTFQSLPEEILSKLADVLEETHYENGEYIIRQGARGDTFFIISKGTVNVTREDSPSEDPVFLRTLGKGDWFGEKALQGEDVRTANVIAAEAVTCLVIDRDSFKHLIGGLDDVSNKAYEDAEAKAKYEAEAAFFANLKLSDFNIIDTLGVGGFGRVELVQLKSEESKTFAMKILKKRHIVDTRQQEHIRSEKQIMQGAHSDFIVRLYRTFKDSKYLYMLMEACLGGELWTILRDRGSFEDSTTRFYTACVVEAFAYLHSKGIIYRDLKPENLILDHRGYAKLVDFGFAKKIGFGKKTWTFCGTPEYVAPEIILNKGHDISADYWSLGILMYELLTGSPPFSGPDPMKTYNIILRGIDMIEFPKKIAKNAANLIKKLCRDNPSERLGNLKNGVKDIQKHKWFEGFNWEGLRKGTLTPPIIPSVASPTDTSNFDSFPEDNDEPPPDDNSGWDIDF
To be noted: Compound concentration 1000.0 nM.

The target of assay [8] is T4, TGF-beta receptor type-1 (Homo sapiens) (UniProt P36897).
T4 sequence (whole entry): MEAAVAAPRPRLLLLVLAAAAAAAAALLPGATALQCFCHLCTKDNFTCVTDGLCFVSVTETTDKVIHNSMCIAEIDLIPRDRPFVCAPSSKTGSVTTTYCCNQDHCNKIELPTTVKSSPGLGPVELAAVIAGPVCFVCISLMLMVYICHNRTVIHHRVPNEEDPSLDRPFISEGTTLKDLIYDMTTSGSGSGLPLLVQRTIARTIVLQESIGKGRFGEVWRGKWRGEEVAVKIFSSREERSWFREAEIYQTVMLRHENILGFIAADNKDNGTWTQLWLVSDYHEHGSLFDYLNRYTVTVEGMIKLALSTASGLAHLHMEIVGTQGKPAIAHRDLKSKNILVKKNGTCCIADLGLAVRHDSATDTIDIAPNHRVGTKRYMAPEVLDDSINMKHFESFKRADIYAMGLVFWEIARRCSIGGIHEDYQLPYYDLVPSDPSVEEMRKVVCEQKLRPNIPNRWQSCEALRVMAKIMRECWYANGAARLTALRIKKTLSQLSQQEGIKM
Particulars: Compound concentration 1000.0 nM.

Assay [9] concerns the target Histamine H4 receptor (Homo sapiens) (UniProt Q9H3N8). Particulars: Compound concentration 10.0 uM.

Where only a bound is given, the exact number is not on record here.

Sequence of Bone morphogenetic protein receptor type-1B (Homo sapiens) (O00238 whole entry): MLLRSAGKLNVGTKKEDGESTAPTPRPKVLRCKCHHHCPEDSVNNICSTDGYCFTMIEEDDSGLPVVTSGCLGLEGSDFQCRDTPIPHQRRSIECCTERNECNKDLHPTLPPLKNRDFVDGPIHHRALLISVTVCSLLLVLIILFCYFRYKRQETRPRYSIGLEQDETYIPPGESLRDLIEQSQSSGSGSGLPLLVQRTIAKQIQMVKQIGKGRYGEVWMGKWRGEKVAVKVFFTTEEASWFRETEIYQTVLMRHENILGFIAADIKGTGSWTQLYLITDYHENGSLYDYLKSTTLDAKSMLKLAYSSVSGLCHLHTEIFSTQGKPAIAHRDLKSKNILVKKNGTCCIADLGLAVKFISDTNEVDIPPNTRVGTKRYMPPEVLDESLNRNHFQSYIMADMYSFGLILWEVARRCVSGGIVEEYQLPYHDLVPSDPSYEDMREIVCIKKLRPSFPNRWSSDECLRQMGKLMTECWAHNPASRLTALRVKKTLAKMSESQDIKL
Sequence of Histamine H4 receptor (Homo sapiens) (Q9H3N8 whole entry): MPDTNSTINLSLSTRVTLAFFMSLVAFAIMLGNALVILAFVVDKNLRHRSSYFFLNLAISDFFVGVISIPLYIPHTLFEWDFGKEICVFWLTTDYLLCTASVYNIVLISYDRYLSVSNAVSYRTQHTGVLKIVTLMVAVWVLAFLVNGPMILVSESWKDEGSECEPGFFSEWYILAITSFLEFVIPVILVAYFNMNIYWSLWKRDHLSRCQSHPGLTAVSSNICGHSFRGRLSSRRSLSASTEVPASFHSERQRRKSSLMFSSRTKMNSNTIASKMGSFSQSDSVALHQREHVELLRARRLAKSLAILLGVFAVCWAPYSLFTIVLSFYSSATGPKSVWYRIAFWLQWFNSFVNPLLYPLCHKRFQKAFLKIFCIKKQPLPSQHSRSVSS

In general, IC50 refers to the concentration at which inhibition is half-maximal. Low readings indicate greater potency in that assay, high ones weaker potency in that assay. As usually defined, the residual activity is the activity still measured, relative to the control. Broadly, the inhibition is the drop in the measured response relative to a control, in per cent. In the case of `Cc1nc(C2CCN(C(=O)c3ccc(OC(F)(F)F)cc3N)CC2)c2ncc(N3CCN(C)CC3)cc2n1` [BAY-693], the IC50 in assay [1] is given as 19.5 µM (not active). Also, the residual activity in assay [2] is 93%; in assay [3] it was 85%; in assay [4], 87%; in assay [5], 100%; in assay [6], 100%; in [7] it was 100%. The residual activity in [8] was 80%. Further, the inhibition in assay [9] is -5.28%.

Regarding `CN1CCN(c2cnc3c(C4CCN(C(=O)c5ccc(OC(F)(F)F)cc5N)CC4)ncnc3c2)CC1` [BAY-885], the IC50 in assay [1] is reported as > 30 µM (not active). Besides, the residual activity in [2] is 100%; in assay [3] it was 100%; in assay [4], 75%; in assay [5] it was 100%; in assay [6] it was 100%; in assay [7] it was 83%. Further, in [8], the residual activity is 90%. In [9], the inhibition was -1.34%.
